Broadly, the pIC50 is the IC50 on a negative log10 scale, so that one unit is a factor of ten.

From publication PMC9090415, “Discovery of small molecule inhibitors of Plasmodium falciparum apicoplast DNA polymerase” (Journal of Enzyme Inhibition and Medicinal Chemistry, 2022) come the findings set out here.

pIC50: −log10 of the molar value.

The assay concerns the target P. falciparum apicoplast DNA polymerase (Pf-apPOL) (Plasmodium falciparum, UniProt Q8ILY1). Description: Fluorescence-based high-throughput DNA polymerase assay (molecular beacon), primary screen and dose-response.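 For % inhibition ApPOL 90': test concentration in µM.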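 For % inhibition apPOL 180': test concentration in µM.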 The assay is classed as biochemical. The following applies: for DNA Pol: 90 min, 10 µM. In a few lines:
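Single-point screening used 10 µM compound with 20 nM polymerase, 20 nM hairpin substrate and 6 µM dNTPs for 90 min at 25 °C. Confirmatory titrations (2.5–80 µM) followed fluorescence at three times, and IC50 was derived from a fit including a cooperativity term n.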

Sequence of P. falciparum apicoplast DNA polymerase (Pf-apPOL) (Q8ILY1 entry or part of it): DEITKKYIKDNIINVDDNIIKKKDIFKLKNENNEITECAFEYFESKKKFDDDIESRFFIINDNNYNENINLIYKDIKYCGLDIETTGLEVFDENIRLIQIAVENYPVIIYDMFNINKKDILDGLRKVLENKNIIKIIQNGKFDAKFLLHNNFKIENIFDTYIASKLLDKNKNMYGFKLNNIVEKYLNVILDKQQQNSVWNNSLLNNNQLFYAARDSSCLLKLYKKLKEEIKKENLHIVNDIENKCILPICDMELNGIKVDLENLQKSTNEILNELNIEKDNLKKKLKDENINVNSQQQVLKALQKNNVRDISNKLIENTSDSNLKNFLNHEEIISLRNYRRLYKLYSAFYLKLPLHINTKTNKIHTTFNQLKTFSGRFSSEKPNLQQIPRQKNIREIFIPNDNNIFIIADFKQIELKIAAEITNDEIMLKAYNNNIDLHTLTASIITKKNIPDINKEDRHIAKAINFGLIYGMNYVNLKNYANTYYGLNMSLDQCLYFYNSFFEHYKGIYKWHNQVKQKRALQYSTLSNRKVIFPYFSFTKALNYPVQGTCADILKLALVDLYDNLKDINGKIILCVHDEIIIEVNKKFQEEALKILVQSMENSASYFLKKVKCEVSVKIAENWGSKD

Regarding `N#Cc1c(C2CCCCC2)nc(Sc2ccc(C(F)(F)F)cc2[N+](=O)[O-])[nH]c1=O` [Molecule 20], the pIC50 (supplemental file 2, sheet IC50 nontoxic compounds, Pf-apPOL) was 5.06.

`COc1cc(/C=C2\C(=O)N(c3ccc(C(=O)O)cc3)N=C2C(F)(F)F)ccc1OCC(C)C` [KU0069072]: the “% inhibition Apo pol 10'” value stood at 27.3475% (DRC-1, concentration 2.5); 10.3149% (DRC-1, concentration 5); 46.067% (DRC-1, concentration 10); 70.4954% (DRC-1, concentration 20); 88.0061% (DRC-1, concentration 40); 95.6412% (DRC-1, concentration 80 (unit not given)). Also, the “% inhibition Apol 90'” value is 15.3217% (DRC-1, concentration 2.5); -0.5045% (DRC-1, concentration 5); 33.8794% (DRC-1, concentration 10); 63.3531% (DRC-1, concentration 20); 82.4517% (DRC-1, concentration 40); 93.9861% (DRC-1, concentration 80). Besides, the “% inhibition apPOL 180'” value was 6.275% (DRC-1, concentration 2.5); -5.844% (DRC-1, concentration 5); 21.4839% (DRC-1, concentration 10); 50.844% (DRC-1, concentration 20); 75.9132% (DRC-1, concentration 40); 92.8608% (DRC-1, concentration 80). For the same compound, the “% inhibition apPOL 180'” value reads like this: (DRC-2, concentration 2.5) 0.394%; (DRC-2, concentration 5) -9%; (DRC-2, concentration 10) 15%; (DRC-2, concentration 20) 40%; (DRC-2, concentration 40) 66%; (DRC-2, concentration 80) 82%. For the same compound, the “% inhibition Apo pol 5'” value by setting is: (DRC-2, concentration 2.5) 4%; (DRC-2, concentration 5) -3.52%; (DRC-2, concentration 10) 24%; (DRC-2, concentration 20) 44%; (DRC-2, concentration 40) 59%; (DRC-2, concentration 80) 65%. Also, the “% inhibition Apol 40'” value runs as follows: (DRC-2, concentration 2.5) 4.27%; (DRC-2, concentration 5) -5%; (DRC-2, concentration 10) 28%; (DRC-2, concentration 20) 51%; (DRC-2, concentration 40) 70%; (DRC-2, concentration 80) 78%. The “% inhibition ApPOL 90'” value is given as 2.38% (DRC-2, concentration 2.5); -7% (DRC-2, concentration 5); 25% (DRC-2, concentration 10); 50% (DRC-2, concentration 20); 71% (DRC-2, concentration 40); 80% (DRC-2, concentration 80). The “DNA Pol” value runs as follows: (primary screen value of the 186 hits, unit not given) 76; (primary screen value, head prints only 'DNA Pol') 76.
